US6987088B2, “Compounds that bind HER2” (Genentech, Inc., priority 1999, dated 2006)
Entries after “also recorded” stand apart in the source; their conditions may differ. Where no end group is shown, it is not given here.

Key:
HER2-ECD [1] = target: T1, HER2-ECD (Homo sapiens, UniProt P04626); assay: HER2 competition ELISA (block binding of 1.1.FI-Zb to immobilized HER2-ECD); conditions: for HER2 binding activity of Superdex 75 fractions (active species): monomer and dimer fractions assayed in HER2 competition ELISA; for IC50: read-out: IC50, block binding of 1.1.FI-Zb to immobilized HER2, HER2 competition ELISA, 40 nM biotinylated 1.1.FI-Z
T1 construct: immobilized extracellular domain of Erb2 (HER2-ECD, Hudziak et al. (1991) J. Biol. Chem. 266:24109-15)
Protocol: By way of exemplification and not limitation an ELISA assay can be conducted wherein microtiter plates (for example, Nunc Maxisorp™ 96-well plates, Inter Med, Denmark) are coated with HER2-ECD in 50 mM ammonium bicarbonate, pH 9.3, using 5 μg/ml, overnight at 4° C. Wells can be blocked using PBS containing 1% BSA (PBS-BSA) for 1 hr at 25° C. […] Following an incubation of about 1 hour the plate is washed with PBS-TWEEN and Strepavidin-HRP is added for about 30 min. Plates are washed again with PBS-TWEEN and the bound HRP assayed using ABTS/H2O2 substrate. The change in absorbance at 405 nm is monitored. Decrease in absorbance is plotted vs. sample concentration and an IC50 for each candidate peptide ligand is determined.
Following a 1 h incubation the plate was washed with PBS-Tween and Strepavidin/HRP conjugate (Streptavidin-POD, Roche Molecular Biochemicals) was added for 30 min. Plates were washed again with PBS-Tween and the bound HRP was assayed using ABTS/H2O2 substrate (Kirkegaard & Perry Laboratories) and the absorbance at 405 nm was monitored. […] Fractions from the HPLC were tested for their ability to compete in the HER2 competition ELISA.

immobilized HER2 = target: T2, immobilized HER2 (Homo sapiens, UniProt P04626); assay: Binding of Class 1 and Class 7 phage clones to immobilized HER2 in the presence of peptide
T2 construct: immobilized extracellular domain of Erb2 (HER2-ECD, Hudziak et al. (1991) J. Biol. Chem. 266:24109-15)

HER3 = HER3 (Homo sapiens, UniProt P21860); assay: Phage binding assay, HER3
BSA = BSA (Bos taurus, UniProt P02769); assay: Phage binding assay, immobilized BSA
Protocol: (§1) • Selection Conditions—HER2-ECD was immobilized directly to maxisorp plates in 50 mM ammonium bicarbonate, pH 9.3, using 5 μg/ml, overnight at 4° C. Wells were blocked using PBS containing 1% BSA (PBS-BSA) for 1 hr at 25° C. Phage from each pool were incubated in wells containing HER2-ECD in PBS-BSA for 3 hr at 25° C.; generally about 5×10^10 phage were added at the beginning of each round. Unbound phage were removed by repetitive washing with PBS containing 0.05% Tween 20 (PBS-Tween); remaining phage were eluted with 500 mM KCl, 10 mM HCl, pH 2. The eluted phage were then amplified in XL1-Blue cells with VCSM13 helper phage (Stratagene) overnight at 37° C. IPTG (10 μM) was added only to the initial phage libraries and during amplification following round 1; later rounds relied on basal expression of the tac promoter for production of peptide-pVIII expression. Enrichment was monitored by titering the number of phage which bound to a target coated well compare to a well coated with BSA. • HER2 Phage Binding Assay—Inhibition of binding of phage displaying a single copy of peptide 1.1FI (Table 1) on their surface to the immobilized extracellular domain of Erb2 (HER2-ECD, Hudziak et al. (1991) J. Biol. Chem. 266:24109-15) was monitored using a phage ELISA. HER2-ECD was immobilized directly to Maxisorp plates (Nunc) in 50 mM ammonium bicarbonate, pH 9.3, using 5 μg/ml, overnight at 4° C. Wells were blocked using PBS containing 1% BSA (PBS-BSA) for 1 h at 25° C. Dilutions of 1.1FI-Fc in PBS-BSA were tested for their ability to block the binding of 1.1FI displaying phage to the immobilized HER2-ECD. The microtiter plate was washed with PBS containing 0.05% Tween20 (PBS-Tween) and the phage bound to HER2-ECD were detected with an anti-gVIII/HRP monoclonal antibody conjugate (Amersham Pharmacia Biotech). The amount of HRP bound Was measured using ABTS/H2O2 substrate and monitoring the change at 405 nm. Results • Selection of Polyvalent Peptide-Phage That Bind to HER2-ECD—Polyvalent peptide libraries were sorted in 7 pools (Table 1) against immobilized HER2-ECD. […]

HER2-ECD [2] = target: T1, HER2-ECD; assay: Phage binding assay, immobilized HER2-ECD
Protocol: as §1

HER4 = HER4 (Homo sapiens, UniProt Q15303); assay: Phage binding assay, HER4
HER2 expressed on cells = target: T3, HER2 expressed on cells (Homo sapiens, UniProt P04626); assay: Cell binding by FACS analysis (BT 474, MDA 361, BaF3); type: cell-based; conditions: BT 474 (3×10^6 receptors/cell), MDA 361 (4×10^5 receptors/cell), BaF3 (no HER2); 0, 0.5 or 5 μM
T3 construct: Cells expressing HER2 (BT 474 [3+], MDA 361 [2+], and BaF3 [0+]); endogenous in cells; host or cells: BT 474, MDA 361 (BaF3 as control line without HER2)

Chain of HER3 (P21860 20-1342, species assumed): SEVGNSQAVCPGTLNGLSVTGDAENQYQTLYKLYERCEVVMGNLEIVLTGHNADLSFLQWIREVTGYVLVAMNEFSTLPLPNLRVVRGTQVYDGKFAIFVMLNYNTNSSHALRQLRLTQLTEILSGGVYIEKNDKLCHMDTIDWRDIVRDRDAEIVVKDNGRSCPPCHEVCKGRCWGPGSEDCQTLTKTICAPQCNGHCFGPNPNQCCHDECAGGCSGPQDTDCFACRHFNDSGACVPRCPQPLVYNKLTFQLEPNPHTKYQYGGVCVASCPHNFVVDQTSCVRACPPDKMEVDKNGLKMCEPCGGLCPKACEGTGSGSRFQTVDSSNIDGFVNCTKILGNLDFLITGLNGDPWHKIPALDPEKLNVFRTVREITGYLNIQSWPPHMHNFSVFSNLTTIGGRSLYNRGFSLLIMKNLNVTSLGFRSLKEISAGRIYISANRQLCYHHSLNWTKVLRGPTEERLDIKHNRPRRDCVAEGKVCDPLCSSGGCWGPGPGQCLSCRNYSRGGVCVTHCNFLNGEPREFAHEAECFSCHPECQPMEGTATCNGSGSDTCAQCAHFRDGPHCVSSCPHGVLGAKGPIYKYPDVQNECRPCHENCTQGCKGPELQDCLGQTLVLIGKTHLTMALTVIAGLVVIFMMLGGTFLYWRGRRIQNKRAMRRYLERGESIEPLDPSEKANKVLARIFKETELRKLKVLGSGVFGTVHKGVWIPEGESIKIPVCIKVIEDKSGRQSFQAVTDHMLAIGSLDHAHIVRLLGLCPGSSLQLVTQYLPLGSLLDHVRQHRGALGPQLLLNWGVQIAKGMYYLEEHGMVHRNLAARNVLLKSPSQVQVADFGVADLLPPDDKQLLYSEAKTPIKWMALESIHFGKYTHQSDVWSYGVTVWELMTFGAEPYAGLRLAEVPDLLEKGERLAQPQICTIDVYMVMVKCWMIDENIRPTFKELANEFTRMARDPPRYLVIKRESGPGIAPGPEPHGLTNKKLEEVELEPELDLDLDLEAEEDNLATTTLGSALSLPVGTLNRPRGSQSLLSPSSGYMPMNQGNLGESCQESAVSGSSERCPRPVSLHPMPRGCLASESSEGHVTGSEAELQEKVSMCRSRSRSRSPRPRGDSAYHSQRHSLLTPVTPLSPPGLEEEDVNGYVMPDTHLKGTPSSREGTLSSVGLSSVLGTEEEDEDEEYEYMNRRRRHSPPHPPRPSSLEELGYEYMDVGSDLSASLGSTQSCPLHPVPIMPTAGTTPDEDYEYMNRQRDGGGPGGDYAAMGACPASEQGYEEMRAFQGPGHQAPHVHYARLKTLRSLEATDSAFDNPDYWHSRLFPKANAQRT
Chain of HER4 (Q15303 26-1308, species assumed): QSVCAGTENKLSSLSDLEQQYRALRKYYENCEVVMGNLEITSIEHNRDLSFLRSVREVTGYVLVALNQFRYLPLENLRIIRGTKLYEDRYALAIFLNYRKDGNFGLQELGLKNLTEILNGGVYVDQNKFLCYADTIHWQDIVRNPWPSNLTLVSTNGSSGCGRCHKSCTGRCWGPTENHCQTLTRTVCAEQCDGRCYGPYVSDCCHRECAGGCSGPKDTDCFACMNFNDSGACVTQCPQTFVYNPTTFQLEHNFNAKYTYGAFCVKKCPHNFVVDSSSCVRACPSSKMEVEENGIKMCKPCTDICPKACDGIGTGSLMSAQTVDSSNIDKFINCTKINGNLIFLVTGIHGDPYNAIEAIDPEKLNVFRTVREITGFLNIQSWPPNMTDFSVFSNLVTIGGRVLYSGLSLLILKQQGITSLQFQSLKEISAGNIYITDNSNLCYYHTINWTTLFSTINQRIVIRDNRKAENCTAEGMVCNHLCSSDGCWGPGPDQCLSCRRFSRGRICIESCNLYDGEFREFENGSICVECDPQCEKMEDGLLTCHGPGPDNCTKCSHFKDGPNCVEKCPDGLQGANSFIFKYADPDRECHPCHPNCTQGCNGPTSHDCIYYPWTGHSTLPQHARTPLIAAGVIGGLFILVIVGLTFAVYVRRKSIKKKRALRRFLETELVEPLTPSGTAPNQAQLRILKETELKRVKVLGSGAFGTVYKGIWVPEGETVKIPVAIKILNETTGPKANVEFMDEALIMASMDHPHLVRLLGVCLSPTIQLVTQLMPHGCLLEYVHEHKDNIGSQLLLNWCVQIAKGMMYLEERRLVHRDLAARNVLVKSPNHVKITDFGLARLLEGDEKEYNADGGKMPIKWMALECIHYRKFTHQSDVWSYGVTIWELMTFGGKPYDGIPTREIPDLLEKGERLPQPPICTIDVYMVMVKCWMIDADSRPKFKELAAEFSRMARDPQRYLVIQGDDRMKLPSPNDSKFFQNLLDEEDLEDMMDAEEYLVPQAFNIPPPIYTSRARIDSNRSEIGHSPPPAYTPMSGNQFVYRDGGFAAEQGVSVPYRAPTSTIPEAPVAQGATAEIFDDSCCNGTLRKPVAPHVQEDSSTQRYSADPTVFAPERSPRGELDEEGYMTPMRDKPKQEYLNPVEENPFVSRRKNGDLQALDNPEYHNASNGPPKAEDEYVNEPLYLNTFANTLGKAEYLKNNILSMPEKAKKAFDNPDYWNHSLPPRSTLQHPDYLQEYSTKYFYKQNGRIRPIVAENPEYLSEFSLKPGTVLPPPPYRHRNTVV
Chain of BSA (P02769 25-607): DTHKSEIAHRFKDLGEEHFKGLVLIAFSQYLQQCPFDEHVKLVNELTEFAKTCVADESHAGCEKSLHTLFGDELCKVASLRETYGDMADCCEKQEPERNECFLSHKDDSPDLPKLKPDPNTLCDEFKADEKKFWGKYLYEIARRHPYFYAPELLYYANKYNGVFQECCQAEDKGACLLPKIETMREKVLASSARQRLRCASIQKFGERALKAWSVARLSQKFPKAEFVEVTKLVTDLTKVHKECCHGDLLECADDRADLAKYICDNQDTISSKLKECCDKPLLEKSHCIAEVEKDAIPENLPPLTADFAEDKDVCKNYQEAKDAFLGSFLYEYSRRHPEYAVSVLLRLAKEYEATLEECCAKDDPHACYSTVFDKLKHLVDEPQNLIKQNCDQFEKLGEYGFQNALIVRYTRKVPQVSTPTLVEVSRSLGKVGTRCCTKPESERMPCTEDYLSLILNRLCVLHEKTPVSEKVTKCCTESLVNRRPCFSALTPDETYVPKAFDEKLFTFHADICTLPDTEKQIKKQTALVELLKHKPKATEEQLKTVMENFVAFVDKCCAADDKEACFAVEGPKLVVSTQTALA

Substance | Phage binding to HER3 (HER3) | Phage binding to immobilized BSA (BSA) | Phage binding to immobilized HER2-ECD (HER2-ECD [2]) | Phage binding to HER4 (HER4) | other results
1.1.FI-Z: peptide 1.1.FI expressed and secreted from E. coli as a fusion to the Z domain of protein A (QVYESWGCIGPGCACLQACL) | – | – | – | – | HER2 binding activity of Superdex 75 fractions (active species) (HER2-ECD [1]): coincided with the dimer fractions rather than the monomer fractions; also recorded: coinciding with dimer fractions; IC50 (HER2-ECD [1]): 50 nM
(FI)2-Z: 1.1.FI sequence repeated twice and fused to the Z domain of protein A, single chain dimer (QVYESWGCIGPGCACLQACLGGGSGGQVYESWGCIGPGCACLQACL; cysteine pairing not given here; also: fused to the Z domain of protein A (end not given here)) | – | – | – | – | HER2 binding activity of Superdex 75 fractions (active species) (HER2-ECD [1]): the active species was now identified as monomer; HER2 binding activity of Superdex 75 fractions (active species) (HER2-ECD [1]; listed as (1.1FI)2-Z): coinciding with monomer fractions
YSFEGWGCIGPGCAYLFEGH (cysteine pairing not given here) [HER201] | – | – | – | – | Blocking of binding of Class 1 and Class 7 phage to immobilized HER2 (immobilized HER2): block the binding of both Class 1 and Class 7 phage
YEVEAWDCMGPGCANLFEAH [1.1] | not | not | bind | not | –
active fraction: HPLC fraction of trypsin-digested 1.1.FI-Z; mass corresponding to HER212 sequence, found to contain dimer (QVYESWGCIGPGCACLQACL; cysteine pairing not given here; also: fraction found to contain dimer) | – | – | – | – | IC50 (HER2-ECD [1]): 3 nM
1.1.FI-Zb: biotinylated 1.1.FI-Z preparation (QVYESWGCIGPGCACLQACL; cysteine pairing not given here; also: biotinylated (NHS-LC-biotin), fused to Z domain (not in chain)) | – | – | – | – | Binding to cells by FACS (HER2 expressed on cells): bind cells proportional to the number of HER2 receptors expressed on the cell
R S C A D V A S R C W E H C I T [5.1] | not | not | bind | not | –
CSWVLVQCGGEWWHCCGLGCGLVVNAC (cysteine pairing not given here) [7.1] | not | not | bind | not | –
